According to the NIST ThermoML archive (doi:10.1021/je3009304):

Conditions: Liquid

C=C(F)C(F)(F)F [2,3,3,3-tetrafluoro-1-propene]
Conditions	mass density [kg/m3]
282.95 K, 1036 kPa, isochoric method	1147.5
284.62 K, 2015.3 kPa, isochoric method	1147.4
286.31 K, 3030.5 kPa, isochoric method	1147.2
287.71 K, 29892 kPa, isochoric method	1240.4
287.89 K, 3962.5 kPa, isochoric method	1147.1
289.95 K, 15007 kPa, isochoric method	1189.4
289.99 K, 5188 kPa, isochoric method	1146.9
294.1 K, 34879 kPa, isochoric method	1239.8
297.11 K, 19748 kPa, isochoric method	1188.8
297.15 K, 1034.7 kPa, isochoric method	1097.2
298.15 K, 2000 kPa, Pycnometric method	1101.34
298.15 K, 9991.7 kPa, isochoric method	1146.3
299.15 K, 2029.1 kPa, isochoric method	1097.1
300.61 K, 39892 kPa, isochoric method	1239.3
301.16 K, 3031.3 kPa, isochoric method	1096.9
303.02 K, 3977.9 kPa, isochoric method	1096.8
304.9 K, 24929 kPa, isochoric method	1188.2
305.47 K, 5182.3 kPa, isochoric method	1096.6
306.32 K, 14776 kPa, isochoric method	1145.7
312.45 K, 29920 kPa, isochoric method	1187.5
315.08 K, 9982 kPa, isochoric method	1095.9
315.09 K, 19876 kPa, isochoric method	1145
315.95 K, 2247.5 kPa, isochoric method	1032.9
317.45 K, 2859.3 kPa, isochoric method	1032.8
320.1 K, 34906 kPa, isochoric method	1187
320.32 K, 4014.4 kPa, isochoric method	1032.6
322.67 K, 4967.1 kPa, isochoric method	1032.4
323.87 K, 24958 kPa, isochoric method	1144.4
325.07 K, 14981 kPa, isochoric method	1095.2
325.16 K, 5973.9 kPa, isochoric method	1032.3
327.9 K, 39962 kPa, isochoric method	1186.4
332.6 K, 29948 kPa, isochoric method	1143.7
335.17 K, 2008.9 kPa, isochoric method	935
335.17 K, 19964 kPa, isochoric method	1094.5
335.18 K, 10007 kPa, isochoric method	1031.6
338.63 K, 3007.2 kPa, isochoric method	934.8
341.49 K, 35032 kPa, isochoric method	1143.1
342.03 K, 3976.9 kPa, isochoric method	934.7
345.34 K, 25002 kPa, isochoric method	1093.8
345.42 K, 4963.5 kPa, isochoric method	934.5
347.2 K, 14893 kPa, isochoric method	1030.8
350.33 K, 40033 kPa, isochoric method	1142.5
353.14 K, 28869 kPa, isochoric method	1093.3
353.15 K, 7224.7 kPa, isochoric method	934
353.15 K, 17361 kPa, isochoric method	1030.5
